Measurements taken from PMC8268181, “Pharmacokinetic evaluation of Chalcone derivatives with antimalarial activity in New Zealand White Rabbits” (BMC Research Notes, 2021).
Entries after “also recorded” stand apart in the source; their conditions may differ. Where two headings read alike, the source gives them in different places. Each block holds one molecule with its values, some of them ahead of it.

Test: In vivo pharmacokinetic study, single intraperitoneal/oral dose, plasma concentration by RP-HPLC
Set-up: species or system New Zealand White rabbits
Conditions: for Cmax / C0 / AUC(0-t) / half-life / Tmax: both sexes, New Zealand White, plasma; for Cmax: read-out: Cmax (peak plasma concentration); for C0: read-out: C0 (concentration of administrated drug at time zero); for AUC(0-t): linear trapezoidal method, read-out: AUC0–48 (area under the total plasma concentration–time curve); for half-life: read-out: t1/2 (elimination half-life) (converted); for Tmax: rabbit, read-out: tmax (time to reach the peak plasma concentration); for increased bioavailability as compared to in vitro concentration: in vitro concentration from ref 15; for bioavailability (in words): single dose, derivative 1 intraperitoneal, derivatives 2 and 3 oral
Description: The ten healthy adult New Zealand White rabbits weighing between 1.75–2.75 kg of either sex were procured from the institute Advanced Facility for Small Animal Research, PGIMER Chandigarh, after approval from the Institutional Animal Ethics Committee Ref. No. 69/IAEC/418 as per the Committee for the Purpose of Control and Supervision of Experiments on Animals (CPCSEA) guidelines. The animals were housed in polypropylene cages under standard laboratory conditions at controlled temperature (25 ± °C) and 12-h light/dark cycles until the end of the experimental period. Animals were given free access to diet and water in a room and were fasten for at least 12 h prior to experiment. To achieve meaningful statistical results, we used a minimally sufficient number of animals in all cases. A fifteen-days washout period was carried out, which allows animals to completely recover and clear off the administered derivatives.
A total of ten healthy adult New Zealand White rabbits were divided into three groups; (i) derivative 1 treated group, (ii) derivative 2 treated group, and (iii) derivative 3 treated group. The whole experiment was performed in two batches with each batches containing n = 3 animals per group. The second batch with same groups were repeated after giving fifteen-days washout period which helps animals to recover and clear off previous administered derivatives. The three chalcone derivatives were administered at effective dose concentration [dose extrapolated from in vitro study, [15] as per OECD GLP compliance. A single dose of each chalcone derivatives 1, 2 & 3 (suspended in 0.5% carboxymethyl cellulose) were administered to each animal in the early morning at 7:00 am, which was noted as 0 h and then blood samples (1 mL) of animals were collected at specific time intervals of 0, 0.25 h, 0.5 h, 1 h, 2 h, 4 h, 6 h, 8 h, 12 h, 24 h, 36 h, 48 h from marginal ear vein in heparin containing vials. These derivatives were either administered orally through orogastric tube or intraperitoneally. All blood samples were collected from the marginal ear vein after topical anaesthesia with 4% lignocaine solution. No euthanasia procedure was required during the study, and after completion of experiments all animals were kept in rehabilitation centre according to CPCSEA guidelines, in the institute Advanced Facility for Small Animal Research, PGIMER, Chandigarh. Plasma samples for the determination of drug concentration were prepared for RP-HPLC analysis.
Rabbit blood samples were accumulated in heparin contained dry evacuated tubes from marginal ear veins of healthy rabbits as per the standard operating procedure. These samples were centrifuged within 1 h of collection, for segregation of plasma at 1500 rpm for 10 min. The segregated plasma was preserved at […] till assay. Prior experimental analysis the deproteinization of the plasma samples was done in the mixture of methanol and water (90:10 v/v), then vortexed for at least 10–15 min, after while centrifuged for at least 15 min at 6000 rpm, and finally supernatants were pipette-out in a new vial. The supernatants were then spiked with the measured volume of diluted stock solutions of chalcone making up to final concentrations of 10–100 μg/mL.
Each sample has been collected from rabbits at a different time interval and plasma was separated and either processed for assay procedure or stored at – 20 °C in deep freezer till experiment. On the day of the experiment, 100 µL of plasma from each vial was transferred to another and mixed with 100 µL of acetonitrile (HPLC analytical Grade). Then was kept for 5 min at room temperature and then centrifuged at 7000 rpm for 10 min. Supernatant was separated and reconstituted with the mobile phase and finally sterile filter with 0.22 µm membrane filter before the assay procedure.
Chromatographic separation was achieved as mentioned earlier with slight modification. […]

[1] = ip, derivative 1, single intraperitoneal dose 5.46 mg/1.5 kg rabbit, mean ± SEM, n = 6
[2] = 4.85 mg/kg, derivative 2, single oral dose 7.28 mg/1.5 kg rabbit, mean ± SEM, n = 5
[3] = derivative 2, single oral dose 7.28 mg/1.5 kg rabbit (4.85 mg/kg), mean ± SEM, n = 5
[4] = 3.64 mg/kg, derivative 3, single oral dose 5.46 mg/1.5 kg rabbit, mean ± SEM, n = 6

- Cmax (ip, derivative 1, single intraperitoneal dose 5.46 mg/1.5 kg rabbit (text: 3.84 mg/kg), mean ± SEM, n = 6): 1960 ± 460 ng/mL
- C0 [1]: 966 ± 25 ng/mL
- AUC(0-t) [1]: 2.94 ± 0.83 µg·h/mL
- half-life [1]: 12.6 ± 2.09 h
- Tmax (ip, 5.46 mg/1.5 kg rabbit, derivative 1, single intraperitoneal dose 5.46 mg/1.5 kg rabbit (text: 3.84 mg/kg), mean ± SEM, n = 6): 0.33 ± 0.05 h
- increased bioavailability as compared to in vitro concentration (compound 1, single intraperitoneal dose): three fold
- first blood sampling time at which derivative was spotted in plasma (derivative 1, after IP administration): 15 min
- mean CL (derivative 1, single 3.84 mg/kg intraperitoneal dose): 0.28 ± 0.08 L/h
- Vd (volume of distribution) (derivative 1, single intraperitoneal dose 5.46 mg/1.5 kg rabbit, mean ± SEM, n = 6): 7.31 ± 0.29 L
- bioavailability (in words): very low bioavailability
Structure (SMILES): COc1ccc(/C=C/C(=O)c2cc(OC)ccc2OC)cc1 [Derivative 1, (E)-1-(2,5-Dimethoxyphenyl)-3-(4-methoxyphenyl)prop-2-en-1-one]

- C0 [2]: 986 ± 4 ng/mL
- AUC(0-t) [2]: 3760 ± 739 µg·h/mL
- half-life [2]: 93.3 ± 32.6 h
- Tmax (po, 4.85 mg/kg, derivative 2, single oral dose 7.28 mg/1.5 kg rabbit (4.85 mg/kg), mean ± SEM, n = 5): 3.84 h
- Cmax [3]: 69900 ± 5490 ng/mL
- increased bioavailability as compared to in vitro concentration (compound 2, single oral dose): tenfold
- mean CL (derivative 2, single 4.85 mg/kg oral dose): 0.15 ± 0.05 L/h
- systemic exposure (in words) (derivative 2, single oral administration, compared to other two chalcone derivatives): comparatively better systemic exposure
- time the peak concentration remained constant (derivative 2, single oral dose 4.85 mg/kg): 3 to 4 h
- tmax (time to reach the peak plasma concentration) [3]: 3.4 ± 0.79 h
- Vd (volume of distribution) (derivative 2, single oral dose 7.28 mg/1.5 kg rabbit, mean ± SEM, n = 5): 10.72 ± 0.66 L
Structure (SMILES): COc1ccc(/C=C/C(=O)c2cc(OC)c(OC)c(OC)c2)cc1 [Derivative 2, (E)-(3,4,5-Trimethoxyphenyl)-3-(4-methoxyphenyl)prop-2-en-1-one]

- C0 [4]: 944 ± 7 ng/mL
- AUC(0-t) [4]: 14.2 ± 3.78 µg·h/mL
- half-life [4]: 13.3 ± 1.67 h
- Tmax (po, 3.64 mg/kg, derivative 3, single oral dose 5.46 mg/1.5 kg rabbit (3.64 mg/kg), mean ± SEM, n = 6): 2.83 ± 0.87 h
- Cmax (derivative 3, single oral dose 5.46 mg/1.5 kg rabbit (3.64 mg/kg), mean ± SEM, n = 6): 3740 ± 1640 ng/mL
- increased bioavailability as compared to in vitro concentration (compound 3, single oral dose): 25 fold
- mean CL (derivative 3, single 3.64 mg/kg oral dose): 0.53 ± 0.10 L/h
- kinetics of metabolism / elimination phase (in words) (derivative 3, single oral dose): first order kinetics
- Vd (volume of distribution) (derivative 3, single oral dose 5.46 mg/1.5 kg rabbit, mean ± SEM, n = 6): 9.12 ± 0.73 L
Structure (SMILES): COc1ccc(/C=C/C(=O)c2cc(OC)c(OC)c(OC)c2)cc1OC [Derivative 3, (E)-1-(3,4,5-Trimethoxyphenyl)-3-(3,4-dimethoxyphenyl)prop-2-en-1-one]
- bioavailability (in words): poor bioavailability; also recorded: very low bioavailability
